Holding throughout (assay type): cell-based
Assay [1] deals with T1, pEGFR in Ba/F3 cells expressing EGFR exon 20 NPG Ins D770_N771 (Homo sapiens, UniProt P00533, INS770NPG).
T1 construct: expressed in transfected cells; host or cells: Ba/F3 (murine pro-B cells), retroviral transduction, puromycin selection, IL3-independent pool
The assay is described as follows: Inhibitor activity on EGFR phosphorylation (pEGFR AlphaLISA, 2 h), Ba/F3 EGFR exon 20 NPG insertion. The note with it: Ba/F3 EGFR exon 20 NPG Ins D770_N771.

The next assay has as its target T2, Ba/F3 cells with EGFR WT (Homo sapiens, UniProt P00533).
T2 construct: expressed in transfected cells; host or cells: Ba/F3 (murine pro-B cells), retroviral transduction, puromycin selection, maintained with EGF
Briefly: EGFR activity: Ba/F3 cell viability (CellTiter-Glo, 72 h), EGFR WT. The following applies: read-out: BaF3 WT IC50.

For assay [2], the target named is T3, Ba/F3 cells with EGFR exon 20 ASV Ins V769_D770 (Homo sapiens, UniProt P00533, INS769ASV).
T3 construct: expressed in transfected cells; host or cells: Ba/F3 (murine pro-B cells), retroviral transduction, puromycin selection, IL3-independent pool
T3 sequence (P00533 with tags, fused parts or gaps INS769ASV): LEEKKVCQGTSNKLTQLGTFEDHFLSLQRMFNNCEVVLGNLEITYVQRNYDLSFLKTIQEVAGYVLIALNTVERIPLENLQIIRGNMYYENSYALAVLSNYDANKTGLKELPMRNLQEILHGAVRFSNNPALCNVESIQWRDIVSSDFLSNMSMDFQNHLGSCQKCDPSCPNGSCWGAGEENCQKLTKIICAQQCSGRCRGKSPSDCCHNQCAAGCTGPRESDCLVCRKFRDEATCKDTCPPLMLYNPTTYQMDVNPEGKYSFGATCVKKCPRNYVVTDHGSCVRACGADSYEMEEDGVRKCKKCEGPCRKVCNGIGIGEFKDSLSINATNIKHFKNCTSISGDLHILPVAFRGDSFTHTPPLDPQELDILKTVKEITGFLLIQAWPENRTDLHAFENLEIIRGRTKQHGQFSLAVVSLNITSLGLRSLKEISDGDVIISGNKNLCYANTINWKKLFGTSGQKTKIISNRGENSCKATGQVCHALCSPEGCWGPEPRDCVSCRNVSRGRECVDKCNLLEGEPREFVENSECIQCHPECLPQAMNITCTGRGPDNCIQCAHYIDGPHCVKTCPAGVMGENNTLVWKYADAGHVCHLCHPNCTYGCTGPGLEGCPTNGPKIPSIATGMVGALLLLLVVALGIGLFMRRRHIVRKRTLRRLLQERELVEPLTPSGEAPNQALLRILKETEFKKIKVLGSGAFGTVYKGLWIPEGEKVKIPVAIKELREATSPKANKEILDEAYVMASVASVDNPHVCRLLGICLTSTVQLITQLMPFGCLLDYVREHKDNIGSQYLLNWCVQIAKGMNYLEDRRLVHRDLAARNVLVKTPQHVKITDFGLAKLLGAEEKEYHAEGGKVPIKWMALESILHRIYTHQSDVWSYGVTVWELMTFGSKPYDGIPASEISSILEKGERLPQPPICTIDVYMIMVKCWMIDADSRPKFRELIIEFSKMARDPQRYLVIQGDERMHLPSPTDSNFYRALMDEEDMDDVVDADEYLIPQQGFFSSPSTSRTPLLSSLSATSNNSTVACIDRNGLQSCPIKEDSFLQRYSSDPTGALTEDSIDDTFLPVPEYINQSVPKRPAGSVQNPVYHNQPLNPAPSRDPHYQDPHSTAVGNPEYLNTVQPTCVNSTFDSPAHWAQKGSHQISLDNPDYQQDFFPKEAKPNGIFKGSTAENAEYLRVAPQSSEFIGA
The assay is described as follows: EGFR activity: Ba/F3 cell viability (CellTiter-Glo, 72 h), EGFR exon 20 ASV insertion. The note with it: EGFR exon 20 ASV Ins V769_D770, cell viability, read-out: BaF3 ASV IC50.

The next assay concerns the target T4, pEGFR in CUTO14 cells (Homo sapiens, UniProt P00533, DUP767-769).
T4 construct: endogenous in cells; host or cells: CUTO14 cells
Briefly: Inhibitor activity on EGFR phosphorylation (pEGFR AlphaLISA, 2 h), CUTO14 cells. The method, then: CUTO14 cells were obtained from Dr. Robert C. Doebele at the University of Colorado.
Shake 350 rpm for 1 hr in the dark • 3.4 Prepare donor mix under low light conditions prior to use. Dispense 5 μL of donor mix to all the wells. Mix well on the shaker, seal and wrap in aluminum foil and incubate 1.5 hrs at room temperature in the dark • 3.5 Transfer 18.5 μL mixture to OptiPlate 384, and read using an Envision.

For assay [3], the target named is T5, pEGFR in Ba/F3 cells expressing EGFR exon 20 ASV Ins V769_D770 (Homo sapiens, UniProt P00533, INS769ASV).
T5 construct: expressed in transfected cells; host or cells: Ba/F3 (murine pro-B cells), retroviral transduction, puromycin selection, IL3-independent pool
Briefly: Inhibitor activity on EGFR phosphorylation (pEGFR AlphaLISA, 2 h), Ba/F3 EGFR exon 20 ASV insertion. The note with it: Ba/F3 EGFR exon 20 ASV Ins V769_D770.

Assay [4] deals with T6, Ba/F3 cells with EGFR exon 20 NPG Ins D770_N771 (Homo sapiens, UniProt P00533, INS770NPG).
T6 construct: expressed in transfected cells; host or cells: Ba/F3 (murine pro-B cells), retroviral transduction, puromycin selection, IL3-independent pool
T6 sequence (P00533 with tags, fused parts or gaps INS770NPG): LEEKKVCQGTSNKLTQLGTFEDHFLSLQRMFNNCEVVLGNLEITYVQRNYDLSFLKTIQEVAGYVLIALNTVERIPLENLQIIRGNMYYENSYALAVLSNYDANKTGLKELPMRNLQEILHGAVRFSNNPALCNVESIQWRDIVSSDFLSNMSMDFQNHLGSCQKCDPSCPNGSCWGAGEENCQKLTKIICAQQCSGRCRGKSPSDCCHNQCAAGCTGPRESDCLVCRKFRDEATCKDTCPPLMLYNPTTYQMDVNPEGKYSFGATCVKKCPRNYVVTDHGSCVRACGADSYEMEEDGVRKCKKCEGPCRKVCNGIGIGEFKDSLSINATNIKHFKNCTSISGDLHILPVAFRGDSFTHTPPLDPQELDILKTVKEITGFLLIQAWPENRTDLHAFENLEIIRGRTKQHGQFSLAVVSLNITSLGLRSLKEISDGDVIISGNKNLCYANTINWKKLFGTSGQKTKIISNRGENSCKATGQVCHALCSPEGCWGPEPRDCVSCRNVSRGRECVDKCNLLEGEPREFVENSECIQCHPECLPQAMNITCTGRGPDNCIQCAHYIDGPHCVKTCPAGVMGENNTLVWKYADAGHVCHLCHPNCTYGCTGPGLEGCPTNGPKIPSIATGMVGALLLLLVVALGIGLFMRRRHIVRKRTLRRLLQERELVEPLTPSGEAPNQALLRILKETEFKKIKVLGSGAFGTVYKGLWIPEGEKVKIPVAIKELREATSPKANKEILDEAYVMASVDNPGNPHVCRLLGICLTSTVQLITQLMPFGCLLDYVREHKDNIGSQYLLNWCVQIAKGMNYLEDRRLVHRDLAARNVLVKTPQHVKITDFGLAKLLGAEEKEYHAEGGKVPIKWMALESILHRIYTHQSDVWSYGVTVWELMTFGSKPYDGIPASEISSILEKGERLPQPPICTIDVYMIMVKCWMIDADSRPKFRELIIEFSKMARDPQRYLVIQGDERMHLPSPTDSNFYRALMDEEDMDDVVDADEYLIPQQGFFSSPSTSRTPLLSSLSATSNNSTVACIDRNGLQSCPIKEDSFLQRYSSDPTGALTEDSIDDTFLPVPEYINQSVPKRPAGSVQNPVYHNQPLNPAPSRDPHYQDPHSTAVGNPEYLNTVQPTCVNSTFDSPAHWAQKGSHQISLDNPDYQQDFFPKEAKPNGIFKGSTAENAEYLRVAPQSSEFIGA
The assay is described as follows: EGFR activity: Ba/F3 cell viability (CellTiter-Glo, 72 h), EGFR exon 20 NPG insertion. The note with it: EGFR exon 20 NPG Ins D770_N771, cell viability, read-out: BaF3 NPG IC50.

T1 sequence (P00533 with tags, fused parts or gaps INS770NPG): as above
T4 sequence (P00533 with tags, fused parts or gaps DUP767-769): as the sequence (P00533 with tags, fused parts or gaps INS769ASV) above

In the case of `C=CC(=O)N1CCC[C@@H]1C#Cc1cnccc1-c1[nH]c2c(c1Nc1cccc(F)c1OC)C(=O)NCC2` [Compound 147b, (R)-2-(3-((1-acryloylpyrrolidin-2-yl)ethynyl)pyridin-4-yl)-3-((3-fluoro-2-methoxyphenyl)amino)-1,5,6,7-tetrahydro-4H-pyrrolo[3,2-c]pyridin-4-one], the IC50 in assay [1] was less than 100 nM; at Ba/F3 cells with EGFR WT, 100 to 1000 nM; in assay [2], less than 100 nM; against pEGFR in CUTO14 cells, less than 100 nM; in assay [3] it was less than 100 nM; in assay [4] it was less than 100 nM.

For `C=CC(=O)N1CC[C@@H]1COc1cnccc1-c1[nH]c2c(c1Nc1cccc(Cl)c1OC)C(=O)NCC2` [Compound 145a, (R)-2-(3-((1-acryloylazetidin-2-yl)methoxy)pyridin-4-yl)-3-((3-chloro-2-methoxyphenyl)amino)-1,5,6,7-tetrahydro-4H-pyrrolo[3,2-c]pyridin-4-one], the IC50 in assay [1] is less than 100 nM; at Ba/F3 cells with EGFR WT, 100 to 1000 nM; in assay [2] it was less than 100 nM; against pEGFR in CUTO14 cells it was less than 100 nM; in assay [3], less than 100 nM; in assay [4] it was less than 100 nM.

In the case of `C=CC(=O)N1CCC[C@@H]1COc1cnccc1-c1[nH]c2c(c1Nc1cccc(F)c1C)C(=O)NCC2` [Compound 140, (R)-2-(3-((1-acryloylpyrrolidin-2-yl)methoxy)pyridin-4-yl)-3-((3-fluoro-2-methylphenyl)amino)-1,5,6,7-tetrahydro-4H-pyrrolo[3,2-c]pyridin-4-one], the IC50 was less than 100 nM in assay [1]; 100 to 1000 nM on Ba/F3 cells with EGFR WT; less than 100 nM in assay [2]; less than 100 nM on pEGFR in CUTO14 cells; less than 100 nM in assay [3]; less than 100 nM in assay [4].

`C=CC(=O)N1CCC[C@H]1C#Cc1cnccc1-c1[nH]c2c(c1Nc1cccc(F)c1OC)C(=O)NCC2` [Compound 147a, (S)-2-(3-((1-acryloylpyrrolidin-2-yl)ethynyl)pyridin-4-yl)-3-((3-fluoro-2-methoxyphenyl)amino)-1,5,6,7-tetrahydro-4H-pyrrolo[3,2-c]pyridin-4-one]: the IC50 (in assay [1]; on Ba/F3 cells with EGFR WT; in assay [2]; against pEGFR in CUTO14 cells; in assay [3]; in assay [4]) was less than 100 nM each time.

On to `COc1c(Cl)cccc1Nc1c(-c2ccncc2C#CC2(C(F)F)CC2)[nH]c2c1C(=O)NCC2` [compound 546], for which the IC50 in assay [1] is less than 100 nM; at Ba/F3 cells with EGFR WT, 100 to 1000 nM; in assay [2] it was less than 100 nM; against pEGFR in CUTO14 cells it was less than 100 nM; in assay [3], less than 100 nM; in assay [4], less than 100 nM.

Turning to `C=CC(=O)N1CCC[C@H]1COc1cnccc1-c1[nH]c2c(c1Nc1cccc(F)c1C)C(=O)NCC2` [Compound 467, 3-[(3-fluoro-2-methylphenyl)amino]-2-(3-[[(2S)-1-(prop-2-enoyl)pyrrolidin-2-yl]methoxy]pyridin-4-yl)-1H,5H,6H,7H-pyrrolo[3,2-c]pyridin-4-one], the concentration for half-maximal inhibition (IC50) (in assay [1]; at Ba/F3 cells with EGFR WT; in assay [2]; against pEGFR in CUTO14 cells; in assay [3]; in assay [4]) was less than 100 nM each time.
